The text below walks through data of PubChem BioAssay AID588439 (The Scripps Research Institute Molecular Screening Center, 2011).

Active and inactive are the calls of the source.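 The calls were made as follows: active = EC50 at or below 10 µM; inactive = EC50 above 10 µM.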

The target in this experiment is Insulin-degrading enzyme (Homo sapiens) (UniProt P14735). Put plainly: cellular IDE activation of Abeta substrate cleavage – fluorescence polarization, HEK cells, dose response (AID 588439). Particulars: endogenous IDE, FAbeta-B cleavage fluorescence polarization. A general note: Polarisation of emitted light reports the rotation of a fluorescent probe.
Insulin-degrading enzyme (Homo sapiens), sequence (P14735 whole entry, looked up): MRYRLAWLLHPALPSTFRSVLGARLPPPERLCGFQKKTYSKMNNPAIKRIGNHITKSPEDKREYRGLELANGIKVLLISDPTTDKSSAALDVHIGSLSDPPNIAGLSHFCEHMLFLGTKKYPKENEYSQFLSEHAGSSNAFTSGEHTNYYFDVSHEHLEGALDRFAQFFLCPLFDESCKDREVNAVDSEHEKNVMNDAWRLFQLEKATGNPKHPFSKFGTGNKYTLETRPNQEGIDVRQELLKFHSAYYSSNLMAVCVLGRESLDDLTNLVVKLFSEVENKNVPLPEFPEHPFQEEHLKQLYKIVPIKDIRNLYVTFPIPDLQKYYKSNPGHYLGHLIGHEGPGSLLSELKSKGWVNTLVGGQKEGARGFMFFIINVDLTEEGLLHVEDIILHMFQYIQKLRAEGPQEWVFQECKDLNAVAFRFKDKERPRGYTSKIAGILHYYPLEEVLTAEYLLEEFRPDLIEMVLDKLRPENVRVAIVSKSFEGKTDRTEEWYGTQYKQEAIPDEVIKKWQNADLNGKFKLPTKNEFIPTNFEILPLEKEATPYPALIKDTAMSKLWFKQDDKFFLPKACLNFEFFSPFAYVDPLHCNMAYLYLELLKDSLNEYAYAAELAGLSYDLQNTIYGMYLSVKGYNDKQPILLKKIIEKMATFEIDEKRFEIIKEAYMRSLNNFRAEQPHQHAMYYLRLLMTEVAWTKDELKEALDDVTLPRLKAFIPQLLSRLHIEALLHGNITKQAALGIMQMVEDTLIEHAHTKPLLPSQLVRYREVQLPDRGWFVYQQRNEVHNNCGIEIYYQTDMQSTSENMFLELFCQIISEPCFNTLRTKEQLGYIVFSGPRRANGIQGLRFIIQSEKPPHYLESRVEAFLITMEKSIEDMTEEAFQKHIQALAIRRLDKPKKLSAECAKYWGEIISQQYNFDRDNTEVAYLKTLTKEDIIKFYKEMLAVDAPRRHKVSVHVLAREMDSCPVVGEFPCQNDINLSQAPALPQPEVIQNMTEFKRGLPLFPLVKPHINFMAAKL

The term EC50 denotes the concentration needed to bring the measured effect to its halfway point. As to `C#CCOCCOCCOCCNc1nc(N2CCN(C(=O)CCCCCCCCCCNC(=O)Cn3cc(C[C@@H](C)O)nn3)CC2)nc(N2CCN(C(=O)CCCCCCCCCCNC(=O)[C@H](CCCN=C(N)N)n3cc(C[C@@H](C)CC)nn3)CC2)n1`, the EC50 is > 54.7 µM (inactive). Take `C#CCOCCOCCOCCNc1nc(N2CCN(C(=O)CCCCCCCCCCNC(=O)[C@H](CO)n3cc(CCCSC)nn3)CC2)nc(N2CCN(C(=O)CCCCCCCCCCNC(=O)[C@H](CCCCN)n3cc(CCO)nn3)CC2)n1`: the EC50 was > 54.7 µM (inactive). Regarding `C#CCOCCOCCOCCNc1nc(N2CCN(C(=O)CCCCCCCCCCNC(=O)Cn3cc(CCCCCN)nn3)CC2)nc(N2CCN(C(=O)CCCCCCCCCCNC(=O)Cn3cc(C[C@@H](C)O)nn3)CC2)n1`, the EC50 was > 54.7 µM (inactive). With `C#CCOCCOCCOCCNc1nc(N2CCN(C(=O)CCCCCCCCCCNC(=O)[C@H](CCCCN)n3cc(CCO)nn3)CC2)nc(N2CCN(C(=O)CCCCCCCCCCNC(=O)[C@H](CCCN=C(N)N)n3cc(C[C@@H](C)CC)nn3)CC2)n1`, the EC50 was > 54.7 µM (inactive).
